# Measured values as given in patent publication US4018786A, “2-Aminothiazolines and a process for preparation thereof” (Centre d'Etudes pour l'Industrie Pharmaceutique, priority 1974, dated 1977).
# Structures can show the parent of a compound that is named as a salt.
# What was measured:
# [1] = test system: carrageenin-induced oedema; test: Localised carrageenin-induced oedema method (anti-inflammatory action); format: in vivo, rat; conditions: for percentage of anti-inflammatory activity, First Hour / percentage of anti-inflammatory activity, Second Hour / percentage of anti-inflammatory activity, Third Hour / percentage of anti-inflammatory activity, Fifth Hour: 100 mg/kg oral per administration, rat; for percentage of anti-inflammatory activity, First Hour: 1 hour after carrageenin; for percentage of anti-inflammatory activity, Second Hour: 2 hours after carrageenin; for percentage of anti-inflammatory activity, Third Hour: 3 hours after carrageenin; for percentage of anti-inflammatory activity, Fifth Hour: 5 hours after carrageenin; for reduction of the inflammatory reaction, 1st hour / reduction of the inflammatory reaction, 2nd hour / reduction of the inflammatory reaction, 3rd hour / reduction of the inflammatory reaction, 4th hour / reduction of the inflammatory reaction, 5th hour: 50 mg/kg oral
# Description: a. Localised carrageenin-induced oedema method
# A 1% solution of carrageenin (0.1 ml) is injected into the metatarsal flexor muscles of the right hand rear paw of the rat at time "0".
# The animals of the treated group also receive, by the oral route, 100 mg/kg of the compound to be tested, respectively 1 hour before and at the same time as the injection of the phlogogenic agent, then 1 hour and 21/2 hours after. The measurements made with the aid of a micrometer at the time "0" and 1 hour, 2 hours, 3 hours and 5 hours after the administration of the carrageenin, enable one to determine, in relation to time, the percentage of anti-inflammatory activity in relation to the control group.
# a. method of localised carrageenin-induced oedema
# The oral administration of […] of the derivatives to be tested produces a clear reduction of the inflammatory reaction provoked.
# ovalbumin-induced oedema = test: Generalised ovalbumin-induced oedema method (anti-inflammatory action); format: in vivo, rats; conditions: for percentage of decrease of the oedematic reaction, Second Hour / percentage of decrease of the oedematic reaction, Third Hour: 100 mg oral, rats; for percentage of reduction of oedematic reaction, 1st hour / percentage of reduction of oedematic reaction, 2nd hour: 50 mg/kg oral
# Description: b. Generalised ovalbumin-induced oedema method
# A simultaneous intraperitoneal injection of 1 ml of ovalbumin and of 0.5 ml of an aqueous solution of Evans Blue at 1 ml per thousand by weight is administered to rats.
# For comparative purposes, 100 mg of the compound to be tested is administered orally to the animals of the group to be treated, 1 hour before and at the same time as the ovalbumin. The intensity of the phenomenon thus provoked in noted by a FIG. 1 to 5 according to the intensity of the inflammatory syndrome.
# Thus one determines the average of the oedematic intensity and the percentage of decrease of the oedematic reaction in relation to the control animals.
# b. method of generalised ovalbumin-induced oedema
# The percentages of reduction of oedematic reaction, in the test animals, in subjects treated by the oral route by the administration of […] of the compound to be tested show the clear anti-inflammatory action of the compounds according to the invention.
# [2] = LD50/24 hours by the method of Miller & Tainter, intravenous route (derivatives 34 to 38, species not restated); conditions: in vivo, read-out: LD50 /24 hours /kg of body weight
# [3] = Propyl-thiouracil test (hypocholesterolemic action); format: in vivo, rats
# Description: a. Propyl-thiouracil test (RANNEY et Coll. J. Pharmacol. Exper. Therap. 1963, 142, 132-136)
# The administration of propyl-thiouracil to adult rats renders them hypercholesterolemic; in effect, the plasmatic cholesterol rate has increased by about 15%. The testing is carried out on two groups of rats, the control group receiving the propyl-thiouracil only whilst the treated group also receives 100 mg/kg of the compounds to be tested, by the oral route.
# On the 11th day of the experiment, the blood samples are taken and the β-lipoproteins, the free cholesterol and the total cholesterol measured.
# a. Propyl-thiouracil test (Ranney et Coll. J. Pharmacol. Exper. Therap. 1963, 142, 132-136)
# This test has shown the clearly favourable action of the derivatives according to the invention, at a dose of […].
# [4] = Triton test (hypocholesterolemic action); format: in vivo, rat; conditions: for reduction of free cholesterol and total cholesterol levels: 50 mg/kg oral; for reduction of free cholesterol and of total cholesterol: 100 mg/kg oral, rat, 18 hours after Triton
# Description: The intravenous injection of Triton W-R 1339 (an alkylaryl polyetheralcohol sold by Rohm and Haas) enables one to artifically increase, in the rat, certain lipidic fractions of serum and thus to evalute the hypocholesterolemic action of the compounds of the invention. […]
# Eighteen hours later a blood sample is taken and the β-lipoproteins, the free cholesterol and the cholesterol are determined.
# This test, which enables one to evaluate the hypocholesterolemic action of the derivatives to be tested, on serum levels of certain lipid fractions, has shown the remarkable effect of the compounds according to the invention.
# [5] = LD50/24 h by the method of Miller & Tainter, intravenous route, mice; conditions: mouse, in vivo, read-out: LD50 /24 h/kg of body weight
# [6] = 100 mg/kg oral, rats, 11th day, control 0.20 g/l
# [7] = 100 mg/kg oral, rats, 11th day, control 0.86 g/l
Compound,"percentage of anti-inflammatory activity, First Hour [1] [%]","percentage of anti-inflammatory activity, Second Hour [1] [%]","percentage of anti-inflammatory activity, Third Hour [1] [%]","percentage of anti-inflammatory activity, Fifth Hour [1] [%]","percentage of decrease of the oedematic reaction, Second Hour (ovalbumin-induced oedema) [%]","percentage of decrease of the oedematic reaction, Third Hour (ovalbumin-induced oedema) [%]","reduction of the inflammatory reaction, 1st hour [1]","reduction of the inflammatory reaction, 2nd hour [1]","reduction of the inflammatory reaction, 3rd hour [1]","reduction of the inflammatory reaction, 4th hour [1]","reduction of the inflammatory reaction, 5th hour [1]",LD50 at 24 h [2] [mg/kg],"Free cholesterol ([3]; 50 mg/kg, control 0.25)","Total cholesterol ([3]; 50 mg/kg, control 0.89)","percentage of reduction of oedematic reaction, 1st hour (ovalbumin-induced oedema) [%]","percentage of reduction of oedematic reaction, 2nd hour (ovalbumin-induced oedema) [%]",reduction of free cholesterol and total cholesterol levels [4] [%],further results
"CCN(CC)CCc1cnc(N(C)C2CCCCC2)s1 [Derivative No. 22, 5-β-diethylaminoethyl 2-(N-methyl N-cyclohexylamino)-thiazole dioxalate]",42,46,54,56,52,60,,,,,,,,,,,,
"Clc1ccc(N2CCN(CC=C3CN=C(NC4CCCCC4)S3)CC2)cc1 [Derivative No. 34, 5-[4-β-(parachlorophenyl)piperazinoethylidene] 2-cyclohexylamino Δ^2-thiazoline]",,,,,,,40,44,50,53,55,35,0.13,0.55,58,62,~34,
"Clc1ccccc1N1CCN(CC=C2CN=C(NC3CCCCC3)S2)CC1 [Derivative No. 37, 5-[4-β-(orthochlorophenyl)piperazinoethylidene]2-cyclohexylamino Δ^2-thiazoline]",,,,,,,38,43,48,52,57,57,0.10,0.60,60,68,~41,
"CCN(CC)CC=C1CN=C(N2CCOCC2)S1 [Derivative No. 14, 5-β-diethylaminoethylidene 2-morpholino Δ^2-thiazoline oxalate]",,,,,,,,,,,,,,,,,,LD50 at 24 h [5]: 105 mg/kg
"CCN(CC)CC=C1CN=C(NC(C)(C)CC(C)(C)C)S1 [Derivative No. 18, 5-(β-diethylaminoethylidene) 2-(1,1,3,3-tetramethyl-butyl-amino) Δ^2-thiazoline]",,,,,,,,,,,,,,,,,,LD50 at 24 h [5]: 45 mg/kg
FC(F)(F)c1cccc(N2CCN(CC=C3CN=C(NC4CCCCC4)S3)CC2)c1 [Derivative No. 36],,,,,,,46,50,59,61,62,65,0.13,0.63,55,61,~27,
"CCN(CC)CC=C1CN=C(N(CC)CC)S1 [Derivative No. 15, 2-diethylamino 5-(2-diethylaminoethylidene) Δ^2-thiazoline dioxalate]",,,,,,,,,,,,,,,,,,"Free cholesterol [3, 6]: 0.12 g/L; Total cholesterol [3, 7]: 0.58 g/L; reduction of free cholesterol and of total cholesterol [4]: ~22%"
"CCCCNc1ncc(CCN(CC)CC)s1 [Derivative No. 9, 2-butylamino 5-β-diethylaminoethyl thiazole dihydrochloride]",,,,,,,,,,,,,,,,,,"Free cholesterol [3, 6]: 0.15 g/L; Total cholesterol [3, 7]: 0.58 g/L; reduction of free cholesterol and of total cholesterol [4]: ~24%"
"COc1ccc(N2CCN(CC=C3CN=C(NC4CCCCC4)S3)CC2)cc1 [Derivative No. 38, 2-cyclohexylamino 5-[4-β-(paramethoxyphenyl)piperazinoethylidene] Δ^2-thiazoline]",,,,,,,49,53,56,60,61,52,0.09 g/L,0.58,64,70,~44,
"CCN(CC)CC=C1CN=C(N(CC)C2CCCCC2)S1 [Derivative No. 10, 5-(β-diethylaminoethylidene) 2-N-ethyl N-cyclohexylamino) Δ^2-thiazoline oxalate]",44,47,52,56,57,64,,,,,,,,,,,,
"CCN(CC)CC=C1CN=C(NCC(O)c2ccccc2)S1 (stereo not drawn) [Derivative No. 4, 2-β-hydroxyphenethylamino 5-(N-diethylaminoethylidene) Δ^2-thiazoline]",39,40,49,53,59,65,,,,,,,,,,,,
"CCN(CC)CCC1CN=C(NC2CCCCC2)S1 (stereo not drawn) [Derivative No. 3, 2-cyclohexlamino 5-β-diethylaminoethyl Δ^2-thiazoline]",37,39,46,48,54,60,,,,,,,,,,,,
"C(CN1CCN(c2ccccc2)CC1)=C1CN=C(NC2CCCCC2)S1 [Derivative No. 35, 2-cyclohexylamino 5-[4-β-(phenyl)piperazinoethylidene] Δ^2-thiazoline]",,,,,,,45,46,55,57,58,48,0.11,0.61,62,65,~29,
